# According to patent publication US20040138274A1, “Novel pharmaceuticals” (priority 2002, published 2004):
# Columns and labels:
# [1] = test system: black patients with essential hypertension; details: clinical study of 24 black patients with essential hypertension; cited from earlier work
# NEP from human kidney = target: T1, NEP from human kidney (Homo sapiens, UniProt P08473); assay: Assay 2: modified NEP fluorescence assay for potent tight-binding inhibitors; assay type: biochemical; details: as determined by Assay 2, substrate Abz-D-Arg-Arg-Leu-EDDnp, read-out: IC50 against NEP
# T1 construct: Enzyme: NEP from human kidney (prepared using the method of Kenny and Booth); from tissue; host or cells: human kidney
# T1 sequence (P08473 whole entry): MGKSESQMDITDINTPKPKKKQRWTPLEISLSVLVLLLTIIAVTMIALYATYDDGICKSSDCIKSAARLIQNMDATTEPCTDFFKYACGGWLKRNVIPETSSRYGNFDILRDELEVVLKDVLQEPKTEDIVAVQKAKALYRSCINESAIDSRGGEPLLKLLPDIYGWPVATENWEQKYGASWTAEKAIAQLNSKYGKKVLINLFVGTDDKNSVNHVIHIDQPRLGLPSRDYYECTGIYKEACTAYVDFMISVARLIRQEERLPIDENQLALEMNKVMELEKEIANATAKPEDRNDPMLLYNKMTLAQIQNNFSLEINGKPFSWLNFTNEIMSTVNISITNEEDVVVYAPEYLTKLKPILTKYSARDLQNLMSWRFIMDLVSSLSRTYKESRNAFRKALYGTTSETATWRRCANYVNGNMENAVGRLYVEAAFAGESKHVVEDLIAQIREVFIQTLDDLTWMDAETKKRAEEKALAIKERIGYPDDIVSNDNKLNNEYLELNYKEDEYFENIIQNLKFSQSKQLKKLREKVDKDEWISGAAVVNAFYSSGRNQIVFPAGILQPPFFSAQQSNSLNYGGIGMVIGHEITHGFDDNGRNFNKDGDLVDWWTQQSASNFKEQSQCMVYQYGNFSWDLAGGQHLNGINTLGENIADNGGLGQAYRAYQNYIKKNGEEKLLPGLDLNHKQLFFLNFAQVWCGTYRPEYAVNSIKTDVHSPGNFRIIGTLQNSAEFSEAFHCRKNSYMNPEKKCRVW
# Description: Assay 2: This is a modification of Assay 1 which is adapted for potent tight-binding inhibitors.
# Buffer: 50 mM Tris pH 7.4
# Buffer containing 4% DMSO: 4 ml DMSO added to 96 ml buffer
# Enzyme: NEP from human kidney (prepared using the method of Kenny and Booth, Biochem. J. 142, 575, 1974) aliquots stored at −70° C. The NEP activity of each preparation is determined by using serial dilutions of the preparation in this assay without inhibitor, a dilution that achieves 10 to 15% conversion of substrate is used in inhibitor studies.
# Inhibitors: Inhibitors are dissolved in DMSO to give a 10 mM solution then further diluted to 1 mM in DMSO. A further dilution is made (40 μl into 960 μl buffer) to give 4×10^−5M inhibitor in buffer containing 4% DMSO. All further dilutions are made in buffer containing 4% DMSO. Inhibitors are assayed utilising an eight point (half log units) dose response curve in duplicate.
# Substrate: The substrate (Abz-D-Arg-Arg-Leu-EDDnp, K. M. Carvalho et al. Analytical Biochem 237, 167-173 (1996)) is stored at −70° C. A 2 mM stock is made in buffer and aliquots stored at −70° C. for up to 1 month.
# Stop solution: Phosphoramidon (Sigma R7385) 300 nM in buffer. Aliquots of 300 μM solution are stored at −20° C. and diluted 1000 fold in buffer.
# Product: Two samples corresponding to 100% conversion of substrate to product are included in the assay to enable the % substrate turnover to be determined. Add 200 μl of 25 μM product and 100 μl stop solution. A stock of this is generated by incubating 1 ml of 25 μM substrate with 20 μl of enzyme stock overnight at 37° C., aliquot and store at −70° C.
# Plates: Black Costar 96 well plate Cat# 3915
# Fluorescence reader: BMG Fluostar, read at ex320 em420
# 1. Add 50 μl of inhibitor (4× assay conc)
# 3. Add 50 μl of enzyme dilution (1:800)
# 4. Incubate at 37° C. for 1 hour
# 5. Initiate the reaction by adding 20 μl of substrate
# 5. Incubate at 37° C. for 3 hours
# 6. Add 100 μl of stop solution.
# 7. Read fluorescence using a FLUOstar. (Ex320/Em420
# Included in each assay are:
# Non enzyme blanks (enzyme replaced with buffer and compound dilution replaced with 4% DMSO buffer)
# Controls (compound dilution replaced with 4% DMSO buffer)
# Total product (see below)
# hypertensive rats = details: cited from earlier work
# hypertensive patients = details: added to the ACE inhibitor lisinopril; clinical study involving 37 hypertensive patients; cited from earlier work
IC50 (NEP from human kidney) [nM],SMILES,other results
0.3,COCC[C@H](CC1(C(=O)N[C@@H](Cc2ncc(-c3ccc(F)cc3)o2)C(=O)O)CCCC1)C(=O)O [Example 26],–
0.3,"COCC[C@H](CC1(C(=O)N[C@@H](Cc2ncc(-c3ccc(Cl)cc3)o2)C(=O)O)CCCC1)C(=O)O [Example 30, (2S)-2-(1-{(1S)-1-Carboxy-2-[5-(4-chloro-phenyl)-oxazol-2-yl]-ethylcarbamoyl}-cyclopentylmethyl)-4-methoxy-butyric Acid]",–

# The remaining lines, values behind:
SMILES,IC50 (NEP from human kidney) [nM],other results
CC1(C)OCC(COC(=O)C(Cc2ccccc2)N[C@@H](Cc2ccccc2)C(=O)NCCC(=O)O)O1 (stereo partly shown) [SCH34826],–,supine blood pressure [1]: significantly lowered supine blood pressure
"COCC[C@H](CC1(C(=O)N[C@@H](Cc2ncc(-c3ccccc3)o2)C(=O)O)CCCC1)C(=O)O [Example 40, (2S)-2-{1-[(1S)-1-Carboxy-2-(5-phenyl-oxazol-2-yl)-ethylcarbamoyl]-cyclopentylmethyl}-4-methoxy-butyric Acid]",0.3,–
"CCC[C@H](CC1(C(=O)N[C@@H](Cc2ncc(-c3ccccc3)o2)C(=O)O)CCCC1)C(=O)O [Example 29, (2R)-2-{1-[(1S)-1-Carboxy-2-(5-phenyl-oxazol-2-yl)-ethylcarbamoyl]-cyclopentylmethyl}-pentanoic Acid]",0.7,–
COCCOC[C@H](CC1(C(=O)N[C@H]2CC[C@@H](C(=O)O)CC2)CCCC1)C(=O)O [candoxatrilat],–,systolic blood pressure (hypertensive rats): lowers systolic blood pressure
COCCOC[C@H](CC1(C(=O)N[C@H]2CC[C@@H](C(=O)O)CC2)CCCC1)C(=O)Oc1ccc2c(c1)CCC2 [candoxatril],–,supine and erect blood pressure (hypertensive patients): marked reduction in both supine and erect blood pressure
